Measured values: patent US12383515B2, “Compositions and methods of use of γ-ketoaldehyde scavengers for treating, preventing or improving nonalcoholic fatty liver disease (NAFLD), NASH, ALD or conditions related to the liver” (MTI Biotech, Inc., priority 2016, dated 2025)
“Also recorded” adds a separate entry of the source.

Key:
mouse hepatocytes = test: Oxidant mediated cell death induced by t-butylhydroperoxide; type: cell-based; settings: FIG. 3
From the text: There is considerable interest in identifying appropriate therapeutic interventions aimed at inhibiting the inflammatory processes and interrupting the immunogenic pathways associated with ALD.
This is a remarkable finding given the fact the pathogenesis of oxidative injury is quite complex and multifaceted. […] Obviously, the efficacy of 2-HOBA depends on its accumulation in target tissues, and this was recently supported by pharmacokinetic studies in an in vivo mouse model. […] The levels in the liver were about 10 times higher than in plasma.

HepaRG cells = test: Ethanol exposure of HepaRG hepatocytes after 2-HOBA pre-treatment; type: cell-based, human
C57/BL6J mice = test: NIAAA ethanol model (10 days ethanol in LDLD + binge) of alcoholic liver injury; type: in vivo, mouse; settings: for Basophils / WBC / eosinophils, % of WBC / lymphocytes, % of WBC / monocytes, % of WBC: 0.5 g/L in LDLD; for AST: serum
Experimental: 2-HOBA and ethanol were concurrently administered to C57/BL6J mice to establish the efficacy of 2-HOBA in mitigating ethanol-mediated liver dysfunction (increased AST and ALT), reducing γ-KA formation, favorably altering immune responses and stimulating beneficial intracellular signaling pathways. […] 2-HOBA (0.5 g/L in Lieber-DeCarli liquid diet, LDLD) was administered to mice prior to ethanol treatment for 14 days to examine 2-HOBA efficacy in mitigating liver injury. Ethanol (5% v/v) was administered using the NIAAA model (10 days ethanol in LDLD+binge). […] White blood cell and lymphocyte cell counts were reduced while eosinophil and basophil counts were increased with ethanol relative to maltodextrin feeding (Table 1), consistent with other reports of alcoholic liver injury. Such responses were not observed in the presence of 2-HOBA.
An additional cohort of mice were administered a 14-day pretreatment of 2-HOBA (1.0 g/L) prior to administration of ethanol using the NIAAA model. Mice administered ethanol consumed less food and consequently weighed ˜2.5 g less than maltodextrin-fed controls at the end of study.

DIAMOND mice = test: DIAMOND mouse model of NAFLD/NASH; type: in vivo; settings: 1 g/L in drinking water, Western diet
Experimental: Twelve 8-wk old male DIAMOND mice were placed on ad libitum high fat diet (Harlan—ENVIGO TD.88317) and water containing glucose (18.9% w/v) and fructose (23.1% w/v); all mice remained on this diet throughout the study protocol. […] The vehicle control group received water without 2-HOBA (with glucose and fructose). Body weight and food intake were measured weekly. At ˜23 wks of age, all animals underwent a glucose tolerance test (GTT) and MRI imaging to assess hepatic fat. For the GTT, animals were fasted for 12 hours and then glucose (2 g/kg bw of a 100 mg/mL glucose in sterile water) was administered by oral gavage. Blood was sampled at 0, 15, 30, 45, 60, 90, and 120 minutes after glucose administration and area under the curve was calculated. Animals were sacrificed at 24 wks of age (12 weeks of 2-HOBA or vehicle treatment). Tissues and serum were collected for analysis.
Serum levels of glucose, alanine transaminase, and aspartate transaminase were measured. […] Significance was set at α=0.05.

cyclooxygenase enzymes = settings: cited from earlier work
HepG2 cells = settings: varying concentrations of H2O2; cited from earlier work
[1] = 1, 3, and 10 g/L for 7 days; cited from earlier work
[2] = 2-HOBA + ETOH, 2-HOBA 1.0 g/L, 14-day pretreatment
[3] = 2-HOBA + MD, 2-HOBA 1.0 g/L, 14-day pretreatment
[4] = 1 g/L in drinking water, 6 weeks, vs vehicle

NCc1ccccc1O [2-HOBA, 2-Hydroxybenzylamine]
cell death induced by t-butylhydroperoxide (tBHP) (mouse hepatocytes): almost completely prevented | reactive oxygen species formation (HepaRG cells; 24 hr pre-treatment 0, 250, 500 and 1000 μM, ethanol 0-200 mM, 24 hr, FIG. 4A): did not affect | cell death by ethanol (HepaRG cells; 24 hr pre-treatment 0, 250, 500 and 1000 μM, ethanol 0-200 mM, 24 hr, FIG. 4B): almost completely prevented | ALT levels in culture media (HepaRG cells; 24 hr pre-treatment 0, 250, 500 and 1000 μM, ethanol 0-200 mM, 24 hr, FIG. 5A): near normalization | AST levels in culture media (HepaRG cells; 24 hr pre-treatment 0, 250, 500 and 1000 μM, ethanol 0-200 mM, 24 hr, FIG. 5B): near normalization | intensity of ~18 kD anti-D11 cross-reactive (γ-KA adducted) band (HepaRG cells; pre-treatment 250 or 500 μM for 24 hr, ethanol, SDS-PAGE, D11 ScFv, FIG. 6): restored to levels observed in untreated controls | body weight (C57/BL6J mice; 0.5 g/L 2-HOBA in LDLD): not significantly impacted | food intake (C57/BL6J mice; 0.5 g/L 2-HOBA in LDLD): not significantly impacted | increases in serum ALT (C57/BL6J mice; 2-HOBA 0.5 g/L): did not attenuate | increases in serum AST (C57/BL6J mice; 2-HOBA 0.5 g/L): did not attenuate | hepatic isofurans (IsoF) (C57/BL6J mice; 2-HOBA 1.0 g/L + ETOH, FIG. 8): significant reductions; also recorded: ameliorated | hepatic isoprostanes (IsoP) (C57/BL6J mice; 2-HOBA 1.0 g/L + ETOH, FIG. 8): significant reductions; also recorded: ameliorated | kidney isoprostane levels (C57/BL6J mice; 2-HOBA 1.0 g/L + ETOH, P<0.05 versus Con+ETOH): 1.3 ± 0.1 ng/g | Basophils (C57/BL6J mice; 2-HOBA + ETOH): 1.27 ± 0.26^# x10^3/μl | WBC (C57/BL6J mice; 2-HOBA + ETOH): 3.11 ± 0.66 x10^3/μl | eosinophils, % of WBC (C57/BL6J mice; 2-HOBA + ETOH): 2.71 ± 0.46% | lymphocytes, % of WBC (C57/BL6J mice; 2-HOBA + ETOH): 50.4 ± 4.59% | monocytes, % of WBC (C57/BL6J mice; 2-HOBA + ETOH): 6.33 ± 1.11% | ALT (C57/BL6J mice; 2-HOBA + ETOH, 2-HOBA 0.5 g/L): 443.7 ± 66.2 U/L | AST (C57/BL6J mice; 2-HOBA + ETOH, 2-HOBA 0.5 g/L): 1725.0 ± 300.2 U/L | BUN (blood urea nitrogen) (C57/BL6J mice; 2-HOBA + ETOH, 2-HOBA 1.0 g/L): 22.6 ± 1.7 mg/dL | CRE (creatinine) (C57/BL6J mice; 2-HOBA + ETOH, 2-HOBA 1.0 g/L): 0.3 ± 0.04 mg/dL | ALT (C57/BL6J mice; [2]): 164.4±20.8 U/L | AST (C57/BL6J mice; [2]): 676.6±86.7 U/L | WBC (C57/BL6J mice; 2-HOBA + MD (maltodextrin)): 6.08 ± 1.05 x10^3/μl | Basophils (C57/BL6J mice; 2-HOBA + MD): 0.60 ± 0.14 x10^3/μl | eosinophils, % of WBC (C57/BL6J mice; 2-HOBA + MD): 1.79 ± 0.4% | lymphocytes, % of WBC (C57/BL6J mice; 2-HOBA + MD): 58.1 ± 5.45% | monocytes, % of WBC (C57/BL6J mice; 2-HOBA + MD): 6.66 ± 0.92% | ALT (C57/BL6J mice; 2-HOBA + MD, 2-HOBA 0.5 g/L): 54.3 ± 20.1 U/L | AST (C57/BL6J mice; 2-HOBA + MD, 2-HOBA 0.5 g/L): 566.5 ± 34.1 U/L | BUN (blood urea nitrogen) (C57/BL6J mice; 2-HOBA + MD, 2-HOBA 1.0 g/L): 34.6 ± 2.9 mg/dL | CRE (creatinine) (C57/BL6J mice; 2-HOBA + MD, 2-HOBA 1.0 g/L): 0.3 ± 0.05 mg/dL | ALT (C57/BL6J mice; [3]): 127.5 ± 78.59 U/L | AST (C57/BL6J mice; [3]): 693.6 ± 173.1 U/L | hepatic triglyceride content (C57/BL6J mice; ETOH-challenged mice pre-treated with 2-HOBA 1.0 g/L): trended to be lower | ethanol responses: reduced white blood cell and lymphocyte counts, increased eosinophil and basophil counts (C57/BL6J mice; ethanol relative to maltodextrin feeding, 0.5 g/L 2-HOBA): not observed | kidney isoprostane formation (C57/BL6J mice; pre-treatment 14 days at 1.0 g/L): decreased | liver injury (elevated γ-KAs and liver function enzymes) upon ethanol exposure (C57/BL6J mice; pre-treatment with 2-HOBA 1.0 mg/ml (1.0 g/L), 14 days): significantly reduces; also recorded: reduced | liver weight (DIAMOND mice; FIGS. 15-16): trend for a reduction | liver enzyme ALT (DIAMOND mice; serum, FIG. 16H): significant reduction | liver enzyme AST (DIAMOND mice; serum, FIG. 16I): significant reduction | ALT (STAM mice; [4]): trending towards reduction | insulin (STAM mice; [4]): trending towards reduction | lipids (STAM mice; [4]): trending towards reduction | liver to body weight ratios (STAM mice; [4]): significantly reduced | liver weight (STAM mice; [4]): significantly reduced | serum isoprostanes (STAM mice; [4]): significantly reduced | NAFLD severity (STAM mice; FIG. 12): reduce | NALP1 (STAM mice; liver): decrease | expression of pyruvate dehydrogenase kinase 4 (pdk4) (STAM mice; liver): significantly decreased | signaling through FOXO1 (STAM mice; liver immunoblot): without significantly altering | AKT phosphorylation (STAM mice; liver immunoblot, FIG. 13): dramatically increased | GSK30 phosphorylation (STAM mice; liver immunoblot, FIG. 13): dramatically increased | signaling through ERK (STAM mice; liver immunoblot, FIG. 13): without significantly altering | signaling through mTOR (STAM mice; liver immunoblot, FIG. 13): without significantly altering | markers of hepatic insulin sensitivity (STAM mice; mouse, in vivo): restores | NLRP1-inflammasome activation (STAM mice; oral 2-HOBA administration): blocked | inhibition of cyclooxygenase enzymes (cyclooxygenase enzymes): does not inhibit | oxidant mediated cell death (HepG2 cells): protective effect | levels in the liver relative to plasma [1]: about 10 times | liver levels of 2-HOBA [1]: dose-dependent increases | plasma levels of 2-HOBA [1]: dose-dependent increases
